Results on two molecules are retold here after PMC8309005, “Novel Non-Congeneric Derivatives of the Choline Kinase Alpha Inhibitor ICL-CCIC-0019” (Pharmaceutics, 2021).

In series [1] the test system is HCT-116 colorectal cancer cells. In words: Cellular uptake and metabolism study in HCT-116 (HPLC). It counts as cell-based, human. As to conditions: HCT-116, 50 μM. As for the experimental part:
The cell pellets were resuspended in 1 mL water: acetonitrile: formic acid (95:5:0.2, v/v/v) and disrupted by an ultrasonic cell disruptor (Soniprep 150, MSE Ltd., London, UK) for 1 min on ice. One hundred microliters of the filtered supernatant from centrifuge (4 °C, 15,000× g) were analyzed by HPLC. Three injections were performed for each sample. […] The HPLC method used in this study is described in Supplementary HPLC method C.

Series [2] has as its system Δ49N CHKA2 (recombinant CHKA2). To be noted: read-out: IC50 Δ49N CHKA2; cited from earlier work.
Series [3] relates to HCT-116. To be noted: cited from earlier work.
In series [4] the test system is A549. To be noted: cited from earlier work.
The test system of series [5] is MCF-10A and ST-T1B (2 normal cell lines). To be noted: read-out: GI50 range of 2 normal cell lines (MCF-10A and ST-T1B); cited from earlier work.
Series [6] has as its system 8 cancer cell lines. The arrangement: method as in PMID 27206796. To be noted: cited from earlier work.
Series [7] relates to HCT116 xenografts. As to conditions: cited from earlier work.

Read-outs that look alike come from different tables or passages of the source.

`CC(=O)NCCCCC(NC(=O)OC(C)(C)C)C(=O)N1CCN(c2cc[n+](CCCCCCCCCCCCCC[n+]3ccc(N(C)C)cc3)cc2)CC1` (stereo not shown) [CK145]: the “in vitro conversion to CK146 or intermediates (in words)” value in series [1] (1 h and 2 h, HPLC) is given as “not observed”.
As to `CN(C)c1cc[n+](CCCCCCCCCCCC[n+]2ccc(N(C)C)cc2)cc1` [ICL-CCIC-0019], the “cellular uptake relative to CK145” value in series [1] (1 h and 2 h post-incubation) is “approximately two-fold”. Further, the IC50 in series [2] is 270 ± 60 nM. The GI50 in series [3] was 640 nM; in series [4], 380 nM; in series [5] it was 30000 to 120000 nM; in series [6] (read-out: GI50 range of 8 cancer cell lines) it was 380 to 2700 nM; in series [6] (read-out: mean GI50 of 8 cancer cell lines) it was 1090 nM. Further, the “in vivo anti-tumor activity (in words)” value in series [7] is given as “potent in vivo anti-tumor activity”. For the same molecule, the “body weight effect (in words)” value in series [7] (in vivo) is “slight reduction in body weight”.
